The results in this text go back to US9492471B2, “Methods of treating a disease or disorder associated with Bruton'S Tyrosine Kinase” (Celgene Avilomics Research, Inc., priority 2013, dated 2016).

Like-named read-outs stand apart in the source and are kept apart here.

Common to all, as to test: HotSpot kinase profiling
Holding throughout (type): biochemical

One assay has as its target T1, SGK1 (Homo sapiens, UniProt O00141).
T1 construct: purchased Reaction Biology Corp
T1 sequence (O00141 1-431): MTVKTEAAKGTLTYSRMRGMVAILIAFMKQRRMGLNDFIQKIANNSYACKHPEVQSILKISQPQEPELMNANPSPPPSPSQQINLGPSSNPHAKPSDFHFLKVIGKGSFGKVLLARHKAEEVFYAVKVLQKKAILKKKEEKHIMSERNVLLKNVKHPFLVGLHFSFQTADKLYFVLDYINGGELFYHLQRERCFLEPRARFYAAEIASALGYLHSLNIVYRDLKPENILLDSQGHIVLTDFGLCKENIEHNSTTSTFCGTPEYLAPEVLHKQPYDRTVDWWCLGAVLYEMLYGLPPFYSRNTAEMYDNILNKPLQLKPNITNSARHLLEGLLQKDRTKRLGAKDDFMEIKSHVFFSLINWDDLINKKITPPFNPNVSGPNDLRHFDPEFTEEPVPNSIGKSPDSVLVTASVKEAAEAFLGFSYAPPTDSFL
Here is the method: (§1) The binding assay system for profiling kinase activity were based upon HotSpot technology (Reaction Biology Corp.; Malvern, Pa., USA) and utilized radio-isotope-based P81 filtration. […] Substrates for the various kinases tested against Compound 2 (substrate information available on the Reaction Biology Corp. website) were prepared fresh daily in Reaction Buffer. Any required cofactors were then added to the substrate solution. The identification and selection of the appropriate cofactor for each kinase is within the ability of a person skilled in the art. See, for example, Handbook of Assay Development in Drug Discovery, Ed. Lisa K. Minor, 2006: CRC Press, Boca Raton, Fla.; Gao et al., “A broad activity screen in support of a chemogenomic map for kinase signalling research and drug discovery,” Biochem J. 2013, 451(2): 313-28; and Eglen et al., “Drug discovery and the human kinome: Recent trends,” Pharmacology & Therapeutics 2011, 130(2): 144-156. The kinase was then added to the substrate solution and gently mixed. […] This was followed by incubation at room temperature for 2 h. The reaction was terminated and any unreacted phosphate was washed away using 0.1% phosphoric acid prior to detection utilizing a proprietary technology. […] DMSO was used as the negative control.
(§2) Percent inhibition was expressed as an average where the assay was performed more than once, e.g., in duplicate.

The target of another assay is T2, PIM3 (Homo sapiens, UniProt Q86V86).
T2 construct: purchased Reaction Biology Corp
Here is the method: as §1, §2

A further assay has as its target T3, Haspin (Homo sapiens, UniProt Q8TF76).
T3 construct: purchased Reaction Biology Corp
T3 sequence (Q8TF76 1-798): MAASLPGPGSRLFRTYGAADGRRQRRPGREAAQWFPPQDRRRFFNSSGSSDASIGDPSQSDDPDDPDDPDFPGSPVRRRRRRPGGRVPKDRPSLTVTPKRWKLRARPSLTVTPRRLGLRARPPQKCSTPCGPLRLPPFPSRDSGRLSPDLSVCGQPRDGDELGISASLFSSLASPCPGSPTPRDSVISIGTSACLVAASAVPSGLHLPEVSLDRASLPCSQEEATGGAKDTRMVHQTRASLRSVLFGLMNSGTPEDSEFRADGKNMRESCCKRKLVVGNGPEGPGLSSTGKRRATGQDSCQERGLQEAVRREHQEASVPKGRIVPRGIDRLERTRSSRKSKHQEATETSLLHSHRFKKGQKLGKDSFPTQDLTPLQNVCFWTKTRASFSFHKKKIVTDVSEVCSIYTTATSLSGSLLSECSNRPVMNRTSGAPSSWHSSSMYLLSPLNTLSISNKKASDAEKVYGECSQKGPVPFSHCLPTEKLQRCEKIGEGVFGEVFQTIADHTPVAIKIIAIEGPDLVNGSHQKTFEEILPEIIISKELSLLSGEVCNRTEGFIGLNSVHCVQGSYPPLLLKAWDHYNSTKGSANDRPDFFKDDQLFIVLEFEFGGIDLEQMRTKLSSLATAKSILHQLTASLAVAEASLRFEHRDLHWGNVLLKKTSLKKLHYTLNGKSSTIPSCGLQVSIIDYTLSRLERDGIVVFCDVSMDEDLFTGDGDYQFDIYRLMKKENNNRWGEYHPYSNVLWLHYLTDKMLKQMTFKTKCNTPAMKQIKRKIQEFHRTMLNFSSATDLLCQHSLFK
As for the experimental part: as §1, §2

Another assay addresses T4, PLK2 (Homo sapiens, UniProt Q9NYY3).
T4 construct: purchased Reaction Biology Corp
As for the experimental part: as §1, §2

In a further assay the target is T5, LCK (Homo sapiens, UniProt P06239).
T5 construct: purchased Reaction Biology Corp
T5 sequence (P06239 whole entry): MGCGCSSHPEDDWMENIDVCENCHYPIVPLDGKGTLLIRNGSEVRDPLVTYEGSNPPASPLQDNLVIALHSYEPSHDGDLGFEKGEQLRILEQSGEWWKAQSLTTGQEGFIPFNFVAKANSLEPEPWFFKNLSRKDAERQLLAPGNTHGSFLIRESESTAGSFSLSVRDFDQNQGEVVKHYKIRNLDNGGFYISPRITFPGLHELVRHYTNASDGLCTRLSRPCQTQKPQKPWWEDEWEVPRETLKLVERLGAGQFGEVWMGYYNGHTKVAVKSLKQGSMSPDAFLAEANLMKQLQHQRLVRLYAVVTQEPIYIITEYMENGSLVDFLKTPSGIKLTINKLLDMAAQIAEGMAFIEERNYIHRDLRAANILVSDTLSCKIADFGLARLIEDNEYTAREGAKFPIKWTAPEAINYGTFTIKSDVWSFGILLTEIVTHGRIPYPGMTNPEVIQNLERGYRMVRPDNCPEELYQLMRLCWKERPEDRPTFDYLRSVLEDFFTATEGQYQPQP
As for the experimental part: as §1, §2

The next assay concerns the target T6, SRMS (Homo sapiens, UniProt Q9H3Y6).
T6 construct: purchased Reaction Biology Corp
Here is the method:
as §1, §2

In the next assay the target is T7, PIM2 (Homo sapiens, UniProt Q9P1W9).
T7 construct: purchased Reaction Biology Corp
T7 sequence (Q9P1W9 whole entry): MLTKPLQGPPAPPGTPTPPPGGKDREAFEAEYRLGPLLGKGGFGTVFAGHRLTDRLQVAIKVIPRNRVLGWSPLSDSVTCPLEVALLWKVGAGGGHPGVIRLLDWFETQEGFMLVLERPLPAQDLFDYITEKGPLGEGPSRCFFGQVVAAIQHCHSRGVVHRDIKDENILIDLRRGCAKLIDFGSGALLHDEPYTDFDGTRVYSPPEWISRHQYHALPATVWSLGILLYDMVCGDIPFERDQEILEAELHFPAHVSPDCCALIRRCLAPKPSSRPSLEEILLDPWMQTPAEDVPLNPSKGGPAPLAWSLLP
As for the experimental part: as §1, §2

The next assay has as its target T8, WNK3 (Homo sapiens, UniProt Q9BYP7).
T8 construct: purchased Reaction Biology Corp
Here is the method: as §1, §2

Where [1] appears, read: read-out: % Enzyme Activity (relative to DMSO controls) Run 1.
Setting [2] is: read-out: % Enzyme Activity (relative to DMSO controls) Run 2.

T4 sequence (Q9NYY3 whole entry): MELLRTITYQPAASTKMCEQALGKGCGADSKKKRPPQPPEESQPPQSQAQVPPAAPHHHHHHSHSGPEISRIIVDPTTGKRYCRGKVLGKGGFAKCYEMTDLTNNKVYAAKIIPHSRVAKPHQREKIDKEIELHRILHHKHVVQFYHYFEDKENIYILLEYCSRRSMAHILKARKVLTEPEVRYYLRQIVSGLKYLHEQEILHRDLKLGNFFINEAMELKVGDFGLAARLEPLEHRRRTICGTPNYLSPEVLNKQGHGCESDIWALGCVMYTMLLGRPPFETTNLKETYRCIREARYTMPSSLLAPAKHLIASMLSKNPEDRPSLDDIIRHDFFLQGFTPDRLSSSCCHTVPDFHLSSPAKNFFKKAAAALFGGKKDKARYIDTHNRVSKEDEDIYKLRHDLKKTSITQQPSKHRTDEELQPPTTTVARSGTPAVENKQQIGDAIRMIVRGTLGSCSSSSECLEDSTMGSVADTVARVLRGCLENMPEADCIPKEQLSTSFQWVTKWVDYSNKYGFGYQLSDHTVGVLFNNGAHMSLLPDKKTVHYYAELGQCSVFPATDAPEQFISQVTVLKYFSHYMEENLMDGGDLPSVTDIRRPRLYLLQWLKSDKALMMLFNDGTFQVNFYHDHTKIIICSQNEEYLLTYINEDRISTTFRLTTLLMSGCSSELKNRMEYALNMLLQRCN
T8 sequence (Q9BYP7 whole entry): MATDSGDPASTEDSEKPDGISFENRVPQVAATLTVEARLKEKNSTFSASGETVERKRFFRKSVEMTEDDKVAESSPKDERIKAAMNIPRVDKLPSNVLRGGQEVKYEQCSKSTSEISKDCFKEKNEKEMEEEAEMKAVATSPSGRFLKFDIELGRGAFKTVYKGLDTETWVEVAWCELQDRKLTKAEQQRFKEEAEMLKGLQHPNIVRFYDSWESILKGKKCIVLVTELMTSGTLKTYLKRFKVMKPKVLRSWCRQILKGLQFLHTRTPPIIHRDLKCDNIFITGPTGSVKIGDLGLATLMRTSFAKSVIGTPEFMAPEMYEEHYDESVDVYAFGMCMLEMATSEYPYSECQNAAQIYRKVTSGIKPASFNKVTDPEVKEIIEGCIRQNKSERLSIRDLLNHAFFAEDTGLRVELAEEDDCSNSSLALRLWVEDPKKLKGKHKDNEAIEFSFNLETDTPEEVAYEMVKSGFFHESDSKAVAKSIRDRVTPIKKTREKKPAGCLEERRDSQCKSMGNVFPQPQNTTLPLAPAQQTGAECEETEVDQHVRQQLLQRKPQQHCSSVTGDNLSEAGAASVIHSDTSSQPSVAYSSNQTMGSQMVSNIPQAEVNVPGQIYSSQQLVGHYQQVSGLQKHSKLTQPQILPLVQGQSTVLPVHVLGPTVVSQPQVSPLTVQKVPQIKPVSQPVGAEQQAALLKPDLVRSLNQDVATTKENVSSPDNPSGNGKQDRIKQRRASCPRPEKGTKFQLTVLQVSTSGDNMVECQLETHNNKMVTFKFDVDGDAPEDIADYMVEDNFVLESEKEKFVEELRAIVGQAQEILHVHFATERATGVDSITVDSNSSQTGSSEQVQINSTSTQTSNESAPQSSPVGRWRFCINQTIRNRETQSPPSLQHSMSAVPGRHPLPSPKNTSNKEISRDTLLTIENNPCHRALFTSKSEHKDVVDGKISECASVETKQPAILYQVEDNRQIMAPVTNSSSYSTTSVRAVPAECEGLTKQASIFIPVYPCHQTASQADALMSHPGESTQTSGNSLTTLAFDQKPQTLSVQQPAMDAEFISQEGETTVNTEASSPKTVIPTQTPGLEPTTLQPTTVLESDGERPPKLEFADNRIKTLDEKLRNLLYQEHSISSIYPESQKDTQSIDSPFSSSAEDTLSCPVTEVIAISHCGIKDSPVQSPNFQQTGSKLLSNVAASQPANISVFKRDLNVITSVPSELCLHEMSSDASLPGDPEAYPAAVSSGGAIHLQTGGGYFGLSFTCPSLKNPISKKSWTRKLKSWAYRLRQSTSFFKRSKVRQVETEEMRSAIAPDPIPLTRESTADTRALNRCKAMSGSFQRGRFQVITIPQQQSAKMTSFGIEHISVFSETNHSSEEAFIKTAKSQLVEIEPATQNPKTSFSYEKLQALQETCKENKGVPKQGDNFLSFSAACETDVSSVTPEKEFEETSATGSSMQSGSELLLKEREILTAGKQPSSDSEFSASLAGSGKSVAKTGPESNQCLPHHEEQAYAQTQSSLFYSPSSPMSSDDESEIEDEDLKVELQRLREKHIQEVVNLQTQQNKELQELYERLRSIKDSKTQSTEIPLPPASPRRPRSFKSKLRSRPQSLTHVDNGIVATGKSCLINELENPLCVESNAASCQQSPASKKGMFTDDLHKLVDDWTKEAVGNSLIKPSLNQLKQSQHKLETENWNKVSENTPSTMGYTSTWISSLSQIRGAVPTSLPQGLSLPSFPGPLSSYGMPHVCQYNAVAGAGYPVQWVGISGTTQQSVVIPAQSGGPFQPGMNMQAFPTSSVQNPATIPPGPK
T6 sequence (Q9H3Y6 whole entry): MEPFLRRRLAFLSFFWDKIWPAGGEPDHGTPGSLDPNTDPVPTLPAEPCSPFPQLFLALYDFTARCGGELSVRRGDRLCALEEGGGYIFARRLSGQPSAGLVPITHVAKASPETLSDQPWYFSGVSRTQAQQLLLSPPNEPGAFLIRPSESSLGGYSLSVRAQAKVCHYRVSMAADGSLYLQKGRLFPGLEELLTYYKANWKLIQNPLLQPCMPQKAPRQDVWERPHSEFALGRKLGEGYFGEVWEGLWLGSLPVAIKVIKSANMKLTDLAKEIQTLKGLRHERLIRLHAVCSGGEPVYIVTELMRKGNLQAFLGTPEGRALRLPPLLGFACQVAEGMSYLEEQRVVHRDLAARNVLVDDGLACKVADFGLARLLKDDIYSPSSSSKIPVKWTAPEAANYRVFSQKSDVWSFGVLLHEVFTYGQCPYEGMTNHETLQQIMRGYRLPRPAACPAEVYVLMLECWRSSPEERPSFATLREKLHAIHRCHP

As a reminder, the inhibition is the drop in the measured response relative to a control, in per cent. For `C=CC(=O)Nc1cccc(Nc2nc(Nc3ccc(OCCOC)c(F)c3)ncc2F)c1` [Compound 2], the inhibition at 3 µM was 0.37% against SGK1; -1.83% on PIM3; 9.77% on Haspin; 13.3% against PLK2; 36% against LCK; -23.1% at SRMS. For the same compound, the values for the inhibition at 3 µM on PIM2 and against WNK3 were -32.5% and 8.34%, respectively. Also, the remaining activity at 3 µM came out at 99.7% at SGK1 (setting [1]); 99.5% at SGK1 (setting [2]); 104% at PIM3 (setting [1]); 100% on PIM3 (setting [2]); 90.6% at Haspin (setting [1]); 89.9% at Haspin (setting [2]). Besides, the remaining activity at 3 µM on PLK2 (setting [1]) was determined as 86.6%; on PLK2 (setting [2]), 86.7%; at LCK (setting [1]), 64.7%; on LCK (setting [2]), 63.4%; at SRMS (setting [1]) it was 124%; at SRMS (setting [2]), 123%. Moreover, the remaining activity at 3 µM at PIM2 (setting [1]) is 136%; at PIM2 (setting [2]), 129%; at WNK3 (setting [1]) it was 91.3%; on WNK3 (setting [2]), 92%.
